≈ marks a conversion by molar mass, not a printed value.
Legend:
[1] = test system: Mycobacterium tuberculosis; test: Minimum inhibitory concentration against Mycobacterium tuberculosis H37Rv ATCC 27294; format: functional
[2] = test system: Mycobacterium tuberculosis; test: Minimum inhibitory concentration against sensitive Mycobacterium tuberculosis clinical isolates; N=9; format: functional
[3] = test system: Mycobacterium tuberculosis; test: Minimum inhibitory concentration against sensitive Mycobacterium tuberculosis clinical isolates; N=9; range=2-4; format: functional
[4] = test system: Mycobacterium tuberculosis; test: Minimum inhibitory concentration against sensitive Mycobacterium tuberculosis clinical isolates; N=9; range=1-4; format: functional
[5] = test system: Mycobacterium tuberculosis; test: Minimum inhibitory concentration against sensitive Mycobacterium tuberculosis clinical isolates; N=9; range=8-16; format: functional
[6] = test system: Mycobacterium tuberculosis; test: Minimum inhibitory concentration against sensitive Mycobacterium tuberculosis clinical isolates; N=9; Range = 0.12-0.25; format: functional
[7] = test system: Mycobacterium tuberculosis; test: microbe, parasite or virus in culture
Description: Minimum inhibitory concentration against sensitive Mycobacterium tuberculosis clinical isolates; N=9; Range=0.03-0.5

[8] = test system: Mycobacterium tuberculosis; test: Minimum inhibitory concentration against sensitive Mycobacterium tuberculosis clinical isolates; N=9; range=4-8; format: functional

**Q.** For O=C(CN(/N=C/c1cccc(Cl)c1)C(=O)c1ccncc1)N1CCN(c2ccc(Cl)cc2)CC1, which MIC [1] is on record?
**A.** Its MIC is greater than 16 µg/mL.

**Q.** And the MIC [2]?
**A.** The MIC was greater than 16 µg/mL.

**Q.** O=C(CN(/N=C/c1cccc(Cl)c1)C(=O)c1ccncc1)N1CCN(Cc2ccc3c(c2)OCO3)CC1 was tested. Which MIC [1] did it give?
**A.** Its MIC is 4 µg/mL (≈ 7.69 µM).

**Q.** What about the MIC [3] of the same compound?
**A.** The MIC was 4 µg/mL (≈ 7.69 µM).

**Q.** Which MIC [1] does the source give for O=C(CN(/N=C/c1cccc(Cl)c1)C(=O)c1ccncc1)N1CCN(c2ccc(F)cc2)CC1 here?
**A.** Its MIC is greater than 16 µg/mL.

**Q.** And the MIC [2]?
**A.** The MIC was greater than 16 µg/mL.

**Q.** Which MIC [1] does the source give for O=C(CN(/N=C/c1ccccc1Cl)C(=O)c1ccncc1)N1CCN(c2ccc(F)cc2)CC1 here?
**A.** The MIC was greater than 16 µg/mL.

**Q.** What about the MIC [2] of the same compound?
**A.** Its MIC is greater than 16 µg/mL.

**Q.** O=C(CN(/N=C/c1cccc(Cl)c1)C(=O)c1ccncc1)N1CCN(c2cccc(Cl)c2)CC1 was tested. Which MIC [1] did it give?
**A.** The MIC was greater than 16 µg/mL.

**Q.** And the MIC [2]?
**A.** The MIC was greater than 16 µg/mL.

**Q.** Which results are given for COc1ccccc1N1CCN(C(=O)CN(/N=C/c2ccccc2Cl)C(=O)c2ccncc2)CC1?
**A.** MIC [1]: > 16 µg/mL; MIC [2]: > 16 µg/mL

**Q.** What does the source list for Cc1cccc(N2CCN(C(=O)CN(/N=C/c3ccc(Cl)cc3Cl)C(=O)c3ccncc3)CC2)c1?
**A.** MIC [1]: > 16 µg/mL; MIC [2]: > 16 µg/mL

**Q.** With O=C(CN(/N=C/c1ccc(Cl)cc1Cl)C(=O)c1ccncc1)N1CCN(Cc2ccc3c(c2)OCO3)CC1 as the compound, how does the “Range of MIC” value [1] read?
**A.** The value was 1 µg/mL.

**Q.** What about the MIC [2] of the same compound?
**A.** Its MIC is 0.5 µg/mL (≈ 0.902 µM).

**Q.** Which results are given for O=C(CN(/N=C/c1ccc(Cl)cc1Cl)C(=O)c1ccncc1)N1CCN(c2cccc(Cl)c2)CC1?
**A.** MIC [1]: > 16 µg/mL; MIC [2]: > 16 µg/mL

**Q.** For O=C(CN(/N=C/c1ccccc1Cl)C(=O)c1ccncc1)N1CCN(c2cccc(C(F)(F)F)c2)CC1, which MIC [1] is on record?
**A.** Its MIC is greater than 16 µg/mL.

**Q.** What about the MIC [2] of the same compound?
**A.** The MIC was greater than 16 µg/mL.

**Q.** How did the MIC [1] turn out when O=C(CN(/N=C/c1ccc(Cl)cc1)C(=O)c1ccncc1)N1CCN(Cc2ccc3c(c2)OCO3)CC1 was run?
**A.** Its MIC is 2 µg/mL (≈ 3.85 µM).

**Q.** What about the MIC [4] of the same compound?
**A.** Its MIC is 4 µg/mL (≈ 7.69 µM).

**Q.** How did the MIC [1] turn out when O=C(CN(/N=C/c1ccc(Cl)cc1)C(=O)c1ccncc1)N1CCN(c2ccc(Cl)cc2)CC1 was run?
**A.** Its MIC is greater than 16 µg/mL.

**Q.** What about the MIC [2] of the same compound?
**A.** Its MIC is greater than 16 µg/mL.

**Q.** With O=C(CN(/N=C/c1ccccc1Cl)C(=O)c1ccncc1)N1CCN(c2ccccc2)CC1 as the compound, how does the MIC [1] read?
**A.** The MIC was greater than 16 µg/mL.

**Q.** What about the MIC [5] of the same compound?
**A.** The MIC was 16 µg/mL (≈ 34.6 µM).

**Q.** What does the source list for O=C(CN(/N=C/c1ccccc1Cl)C(=O)c1ccncc1)N1CCN(c2cccc(Cl)c2)CC1?
**A.** MIC [1]: > 16 µg/mL; MIC [2]: > 16 µg/mL

**Q.** With O=C(CN(/N=C/c1ccc(Cl)cc1Cl)C(=O)c1ccncc1)N1CCN(c2ccc(F)cc2)CC1 as the compound, how does the MIC [1] read?
**A.** Its MIC is greater than 16 µg/mL.

**Q.** And the MIC [5]?
**A.** Its MIC is 16 µg/mL (≈ 31.1 µM).

**Q.** Which MIC [1] does the source give for O=C(CN(/N=C/c1ccccc1Cl)C(=O)c1ccncc1)N1CCN(c2cccc(Cl)c2Cl)CC1 here?
**A.** The MIC was greater than 16 µg/mL.

**Q.** What about the MIC [2] of the same compound?
**A.** The MIC was greater than 16 µg/mL.

**Q.** With Cc1cccc(N2CCN(C(=O)CN(/N=C/c3ccccc3Cl)C(=O)c3ccncc3)CC2)c1 as the compound, how does the MIC [1] read?
**A.** Its MIC is greater than 16 µg/mL.

**Q.** What about the MIC [2] of the same compound?
**A.** Its MIC is greater than 16 µg/mL.

**Q.** NNC(=O)c1ccncc1 [ISONIAZID] was tested. Which MIC [1] did it give?
**A.** The MIC was 0.25 µg/mL (≈ 1.82 µM).

**Q.** What about the MIC [6] of the same compound?
**A.** Its MIC is 0.25 µg/mL (≈ 1.82 µM).

**Q.** What does the source list for O=C(CN(/N=C/c1ccc(Cl)cc1Cl)C(=O)c1ccncc1)N1CCN(c2cccc(C(F)(F)F)c2)CC1?
**A.** MIC [1]: > 16 µg/mL; MIC [2]: > 16 µg/mL

**Q.** Which results are given for O=C(CN(/N=C/c1cccc(Cl)c1)C(=O)c1ccncc1)N1CCN(c2ccc([N+](=O)[O-])cc2)CC1?
**A.** MIC [1]: > 16 µg/mL; MIC [2]: > 16 µg/mL

**Q.** Which results are given for O=C(CN(/N=C/c1ccc(Cl)cc1)C(=O)c1ccncc1)N1CCN(c2ccc([N+](=O)[O-])cc2)CC1?
**A.** MIC [1]: > 16 µg/mL; MIC [2]: > 16 µg/mL

**Q.** How did the MIC [1] turn out when O=C(CN(/N=C/c1ccc(Cl)cc1Cl)C(=O)c1ccncc1)N1CCN(c2ccc([N+](=O)[O-])cc2)CC1 was run?
**A.** Its MIC is greater than 16 µg/mL.

**Q.** What about the MIC [2] of the same compound?
**A.** Its MIC is greater than 16 µg/mL.

**Q.** Which MIC [1] does the source give for O=C(CN(/N=C/c1ccc(Cl)cc1Cl)C(=O)c1ccncc1)N1CCN(c2ccc(Cl)cc2)CC1 here?
**A.** The MIC was 8 µg/mL (≈ 15.1 µM).

**Q.** And the MIC [2]?
**A.** The MIC was 8 µg/mL (≈ 15.1 µM).

**Q.** Which results are given for O=C(CN(/N=C/c1cccc(Cl)c1)C(=O)c1ccncc1)N1CCN(c2ccccc2)CC1?
**A.** MIC [1]: > 16 µg/mL; MIC [2]: > 16 µg/mL

**Q.** Which results are given for O=C(CN(/N=C/c1ccc(Cl)cc1Cl)C(=O)c1ccncc1)N1CCN(c2ccccc2)CC1?
**A.** MIC [1]: > 16 µg/mL; MIC [2]: > 16 µg/mL

**Q.** O=C(CN(/N=C/c1ccccc1Cl)C(=O)c1ccncc1)N1CCN(c2ccc([N+](=O)[O-])cc2)CC1 was tested. Which MIC [1] did it give?
**A.** Its MIC is greater than 16 µg/mL.

**Q.** What about the MIC [2] of the same compound?
**A.** Its MIC is greater than 16 µg/mL.

**Q.** COc1ccccc1N1CCN(C(=O)CN(/N=C/c2ccc(Cl)cc2Cl)C(=O)c2ccncc2)CC1 was tested. Which MIC [1] did it give?
**A.** Its MIC is greater than 16 µg/mL.

**Q.** What about the MIC [2] of the same compound?
**A.** Its MIC is greater than 16 µg/mL.

**Q.** Which MIC [7] does the source give for CO[C@H]1/C=C/O[C@@]2(C)Oc3c(C)c(O)c4c(O)c(c(/C=N/N5CCN(C)CC5)c(O)c4c3C2=O)NC(=O)/C(C)=C\C=C\[C@H](C)[C@H](O)[C@@H](C)[C@@H](O)[C@@H](C)[C@H](OC(C)=O)[C@@H]1C [RIFAMPIN] here?
**A.** Its MIC is 0.5 µg/mL (≈ 0.608 µM).

**Q.** What about the MIC [1] of the same compound?
**A.** The MIC was 0.125 µg/mL (≈ 0.152 µM).

**Q.** How did the MIC [1] turn out when O=C(CN(/N=C/c1ccc(Cl)cc1)C(=O)c1ccncc1)N1CCN(c2ccc(F)cc2)CC1 was run?
**A.** The MIC was greater than 16 µg/mL.

**Q.** And the MIC [2]?
**A.** The MIC was greater than 16 µg/mL.

**Q.** Which MIC [1] does the source give for O=C(CN(/N=C/c1ccccc1Cl)C(=O)c1ccncc1)N1CCN(Cc2ccc3c(c2)OCO3)CC1 here?
**A.** Its MIC is 4 µg/mL (≈ 7.69 µM).

**Q.** And the MIC [8]?
**A.** The MIC was 8 µg/mL (≈ 15.4 µM).

**Q.** How did the MIC [1] turn out when COc1ccccc1N1CCN(C(=O)CN(/N=C/c2cccc(Cl)c2)C(=O)c2ccncc2)CC1 was run?
**A.** The MIC was greater than 16 µg/mL.

**Q.** What about the MIC [2] of the same compound?
**A.** Its MIC is greater than 16 µg/mL.

**Q.** Which results are given for Cc1cccc(N2CCN(C(=O)CN(/N=C/c3cccc(Cl)c3)C(=O)c3ccncc3)CC2)c1?
**A.** MIC [1]: > 16 µg/mL; MIC [2]: > 16 µg/mL

**Q.** Which results are given for COc1ccccc1N1CCN(C(=O)CN(/N=C/c2ccc(Cl)cc2)C(=O)c2ccncc2)CC1?
**A.** MIC [1]: > 16 µg/mL; MIC [2]: > 16 µg/mL

**Q.** Which results are given for O=C(CN(/N=C/c1ccccc1Cl)C(=O)c1ccncc1)N1CCN(c2ccc(Cl)cc2)CC1?
**A.** MIC [1]: > 16 µg/mL; MIC [2]: > 16 µg/mL
